Results taken from patent US20100287625A1, “VEGF VARIANTS” (UNIVERSITE DE LIEGE, priority 2006, published 2010).

Tests used:
VEGF111 mRNA [1] = assay: Induction of VEGF111 mRNA by genotoxic agents, RT-PCR; format: cell-based, human
Method: The indicated cells were treated with UV-B or camptothecin (30 mJ or 1 μM, respectively, except otherwise indicated) for 24 hours (except otherwise indicated) and VEGF and VEGF111 mRNA were measured by RT-PCR. (A) Polyacrylamide gel electrophoresis of RT-PCR products of VEGF (upper panel), VEGF111 (middle panel) and 28S rRNA (lower panel). Arrows in upper panel show the amplification product of VEGF111. The drawings on the right represent the exons (not to scale) in the corresponding VEGF isoforms. C: control cells; Cp: camptothecin treatment; M: 50 bp molecular weight marqueurs; R: cells rinsed with red phenol-free medium; UV: UV-B irradiation; -: non template control; arrowheads: RT-PCR products of synthetic RNA added to the test tubes to monitor reaction efficiency. (B to E) Dose-response analysis (B and D) and kinetic of induction (C and E) of VEGF111 mRNA level in MCF7 cells irradiated by UV-B (B and C) or treated with camptothecin (D and E). The expression of VEGF111 is expressed as the percentage of the signal corresponding to its mRNA taking the overall various VEGF isoforms mRNA, as measured in upper panel of (A) as 100%.
The RT-PCR amplifications were performed in an automated system (GeneAmp PCR System 2400 or 9600, Perkin Elmer, Norwalk, Conn.) using the GeneAmp Thermostable rTth Reverse Transcriptase RNA PCR kit (Perkin Elmer), 10 ng of total RNA and the different pairs of primers (5 pmole each, see Table 1). For amplification of VEGF isoforms mRNA and 28S rRNA, a known copy number of an internal standard RNA were included in each sample to monitor the efficiency of the reaction. The RT step (70° C., 15 min.) was followed by a 2 min. incubation at 95° C. for denaturation of RNA/DNA heteroduplexes, PCR amplification and final elongation for 2 min. at 72° C. The conditions for PCR amplification were 94° C. for 15 sec., 66° C. for 20 sec., 72° C. for 10 sec. for 28S rRNA and CD31 mRNA, or 94° C. for 20 sec, 66° C. for 30 sec. and 72° C. for one min for VEGF. RT-PCR products were resolved on 10% polyacrylamide gel and analysed using a Fluor-S MultiImager (BioRad) after staining with gelstar dye (FMC BioProducts, Rockland, Me.). Specific detection of VEGF111 isoform mRNA was performed as follow. mRNA was reverse transcribed using oligodT (Eurogentec, Seraing, Belgium) and Superscript II (Invitrogen) as described by the manufacturer. Reverse transcription (42° C., 50 min.) was followed by denaturation of the enzyme at 70° C. for 15 min. VEGF111 cDNA was amplified by PCR using 40 ng cDNA, the oligos P5 and P6 (Table 1) and Taq polymerase (Takara, Shiga, Japan). The conditions for PCR amplification were 94° C. for 15 sec., 70° C. for 20 sec.,72° C. for 10 sec.

VEGF111 mRNA [2] = assay: VEGF111 mRNA in blood cells treated ex vivo, RT-PCR; format: cell-based, human; settings: blood cells of a healthy donor, 1 μM, 6 and 24 hours
Method: FIG. 8: VEGF111 is expressed in blood cells treated with camptothecin (1 μM) ex vivo. Double arrowhead: internal standard. Vertical arrow indicates amplification products of VEGF111.
Blood was collected from a healthy donor, and cells were collected by centrifugation. Red blood cells were lyzed and the remaining cells were treated or not with camptothecin (1 μM) for 6 and 24 hours. Untreated cells were also investigated directly after collection. Total VEGF mRNA was measured by RT-PCR as described.

## CC[C@@]1(O)C(=O)OCc2c1cc1n(c2=O)Cc2cc3ccccc3nc2-1 [Camptothecin]
VEGF111 mRNA [1]; 1 μM, HaCat cells and MCF7 cells, by 24 hours, level similar to or higher than after UV-irradiation
  expression of VEGF111: induced
VEGF111 mRNA [1]; MCF7 cells, camptothecin
  time after which VEGF111 induction reached a plateau: 24 h
  time after which VEGF111 induction was already detected: 6 h
VEGF111 mRNA [1]; MCF7 cells, with the concentration of camptothecin
  VEGF111 induction, dose-response: progressively increased
VEGF111 mRNA [2]
  VEGF111 mRNA in blood cells: expressed
